Article PMC7508162 (Frontiers in Pharmacology, 2020)
Read-outs that look alike come from different tables or passages of the source. Blank lines part the entries; values can stand above or below the compound they belong to.

Experiments:
human CD39 [1] = target: T1, human CD39 (Homo sapiens, UniProt P49961); details: read-out: Km (CD39); substrate ATP; ref Kukulski et al., 2005; cited from earlier work
T1 sequence (P49961 1-510): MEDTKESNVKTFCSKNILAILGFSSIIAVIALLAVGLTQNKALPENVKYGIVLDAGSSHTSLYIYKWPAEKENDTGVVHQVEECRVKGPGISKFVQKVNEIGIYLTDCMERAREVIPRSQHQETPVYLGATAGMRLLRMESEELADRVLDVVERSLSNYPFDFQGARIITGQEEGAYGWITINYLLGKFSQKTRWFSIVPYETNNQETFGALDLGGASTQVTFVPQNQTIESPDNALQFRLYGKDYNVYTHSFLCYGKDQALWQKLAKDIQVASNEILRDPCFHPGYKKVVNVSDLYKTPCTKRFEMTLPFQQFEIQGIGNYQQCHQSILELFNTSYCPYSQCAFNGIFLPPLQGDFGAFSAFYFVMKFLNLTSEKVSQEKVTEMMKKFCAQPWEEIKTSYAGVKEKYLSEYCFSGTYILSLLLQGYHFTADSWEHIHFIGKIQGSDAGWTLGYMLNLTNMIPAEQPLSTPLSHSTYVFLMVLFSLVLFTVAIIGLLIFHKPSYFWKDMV

NTPDase2 = target: T2, NTPDase2 (Homo sapiens, UniProt Q9Y5L3); details: read-out: Km (NTPDase2); substrate ATP; ref Kukulski et al., 2005; cited from earlier work
T2 sequence (Q9Y5L3 1-495): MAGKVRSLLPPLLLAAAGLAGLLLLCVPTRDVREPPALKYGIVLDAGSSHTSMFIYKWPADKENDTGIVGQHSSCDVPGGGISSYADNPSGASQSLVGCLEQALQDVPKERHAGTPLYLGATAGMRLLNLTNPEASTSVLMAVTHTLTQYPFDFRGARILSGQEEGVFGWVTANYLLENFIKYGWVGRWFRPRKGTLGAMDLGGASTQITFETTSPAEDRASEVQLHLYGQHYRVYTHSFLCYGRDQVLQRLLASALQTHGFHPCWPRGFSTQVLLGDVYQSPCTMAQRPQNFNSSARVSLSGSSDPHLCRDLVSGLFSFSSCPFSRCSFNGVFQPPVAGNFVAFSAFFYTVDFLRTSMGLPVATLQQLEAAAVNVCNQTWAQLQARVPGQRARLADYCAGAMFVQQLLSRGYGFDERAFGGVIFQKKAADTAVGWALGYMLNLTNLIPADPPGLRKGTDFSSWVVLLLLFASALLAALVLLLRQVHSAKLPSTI

NTPDase3 = target: T3, NTPDase3 (Homo sapiens, UniProt O75355); details: read-out: Km (NTPDase3); substrate ATP; ref Kukulski et al., 2005; cited from earlier work
T3 sequence (O75355 1-529): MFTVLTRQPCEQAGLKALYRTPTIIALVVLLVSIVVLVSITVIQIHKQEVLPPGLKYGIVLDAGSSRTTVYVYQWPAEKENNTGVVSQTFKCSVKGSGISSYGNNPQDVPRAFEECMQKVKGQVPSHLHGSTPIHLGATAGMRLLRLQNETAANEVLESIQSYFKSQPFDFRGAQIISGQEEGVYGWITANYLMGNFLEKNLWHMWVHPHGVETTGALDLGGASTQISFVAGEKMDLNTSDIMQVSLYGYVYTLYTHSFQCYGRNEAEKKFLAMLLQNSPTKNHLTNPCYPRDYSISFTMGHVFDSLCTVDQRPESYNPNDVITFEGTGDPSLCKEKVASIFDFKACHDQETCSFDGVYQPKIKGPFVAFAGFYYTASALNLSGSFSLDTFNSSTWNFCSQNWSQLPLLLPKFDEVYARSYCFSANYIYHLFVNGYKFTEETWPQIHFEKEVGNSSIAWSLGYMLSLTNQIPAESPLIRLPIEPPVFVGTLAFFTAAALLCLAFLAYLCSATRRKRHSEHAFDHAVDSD

NTPDase8 = target: T4, NTPDase8 (Homo sapiens, UniProt Q5MY95); details: read-out: Km (NTPDase8); substrate ATP; ref Kukulski et al., 2005; cited from earlier work
T4 sequence (Q5MY95 1-495): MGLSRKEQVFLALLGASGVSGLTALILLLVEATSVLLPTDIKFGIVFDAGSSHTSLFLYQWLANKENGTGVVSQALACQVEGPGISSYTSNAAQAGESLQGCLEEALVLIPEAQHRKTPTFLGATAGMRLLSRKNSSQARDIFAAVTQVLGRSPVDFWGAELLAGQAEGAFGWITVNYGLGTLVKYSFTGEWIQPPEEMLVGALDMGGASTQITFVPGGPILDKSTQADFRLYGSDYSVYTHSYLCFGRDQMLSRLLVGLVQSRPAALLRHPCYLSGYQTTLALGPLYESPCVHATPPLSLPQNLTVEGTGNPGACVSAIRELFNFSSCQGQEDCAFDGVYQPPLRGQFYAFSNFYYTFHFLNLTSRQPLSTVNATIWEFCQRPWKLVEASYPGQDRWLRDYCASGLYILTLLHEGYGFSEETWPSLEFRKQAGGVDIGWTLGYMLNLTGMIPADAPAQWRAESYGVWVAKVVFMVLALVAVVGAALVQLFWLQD

human CD39 [2] = target: T1, human CD39; assay: Fluorescence capillary electrophoresis assay for CD39; assay type: biochemical; set-up: Human umbilical cord membrane preparations (250 ng) natively expressing high amounts of CD39; from tissue; host or cells: human umbilical cord membranes; details: for Ki: fluorescent substrate PSB-017621A 0.5 µM, human umbilical cord membrane preparation, n = 3, Cheng-Prusoff, read-out: Ki ± SEM
Method: (§1) They were minced and homogenized with a polytron in 95 mM NaCl, 0.1 mM phenylmethylsulfonyl fluoride (PMSF), and 45 mM Tris solution, pH 7.6. […] The pellets were resuspended in 5 mM Tris buffer solution, pH 8.0 and 10% glycerol. All purification steps were performed at 4°C. The preparations were kept at −80°C.
For inhibition screening, three independent experiments were performed. […] The reaction buffer contained 10 mM HEPES, 2 mM CaCl2, 1 mM MgCl2, pH 7.4. The samples were incubated at 37°C for 4 min, and the enzymatic reaction was terminated by heating at 90°C for 5 min. The solution was then diluted 1:20 with reaction buffer to perform separation of nucleotides by capillary electrophoresis (CE) followed by laser-induced fluorescence (LIF) detection. […] Three independent experiments were performed, and curves were calculated by GraphPad Prism 8 software (GraphPad software, San Diego, CA, USA).
Analysis was carried out using a P/ACE MDQ capillary electrophoresis system (Beckman Instruments, Fullerton, CA, USA). The separation was performed in a polyacrylamide-coated capillary [30 cm (10 cm effective length) × 50 µm (id), × 360 µm (od)]. Before each run, the capillary was rinsed with the background electrolyte [50 mM phosphate buffer (pH 6.5)] for 1 min at 30 psi. Samples were electrokinetically injected by applying a voltage of -6 kV for 30 s at the capillary outlet, and the fluorescent nucleotide derivatives were separated by voltage application of -15 kV. […] Data collection and peak area analysis were performed by the P/ACE MDQ software 32 KARAT obtained from Beckman Coulter (Fullerton, CA, USA).

human CD39 [3] = target: T1, human CD39; assay: Malachite green assay for CD39 (natural substrate ATP); assay type: biochemical; set-up: Human umbilical cord membrane preparations (250 ng) natively expressing high amounts of CD39; from tissue; host or cells: human umbilical cord membranes; details: natural substrate ATP 50 µM, n = 3, read-out: Ki ± SEM (converted)
Method: as §1
The reaction buffer contained 10 mM HEPES, 2 mM CaCl2, 1 mM MgCl2, pH 7.4 in a final volume of 50 μl in transparent 96-well half area plates. For CD39 (NTPDase1), we made use of human umbilical cord membranes preparations which express high levels of the enzyme. For the other human NTPDase isoenzymes, we had to resort to recombinant expression. […] The amount of enzyme preparation was adjusted to ensure 10–20% of substrate conversion. […] The released (inorganic) phosphate was quantified after 20 min of gentle shaking at 25°C by measuring the absorption of the malachite green-phosphomolybdate complex at 600 nm using a BMG PheraStar FS plate reader (BMG Labtech GmbH, Ortenberg, Germany).
% Inhibition=(B−T)/B*100%
where B is the average corrected absorption of the positive control without inhibitor and T the corrected absorption in the presence of test compound.
Full concentration-inhibition curves were determined with inhibitor concentrations ranging from 0.1 to 300 µM in the presence of 2% DMSO. Three independent experiments were performed (n = 3) and curves were calculated by the GraphPad Prism 8 software. The Ki value was calculated using the Cheng-Prusoff equation for competitive inhibitors: […]

rat CD39 = target: rat CD39; set-up: method as in Baqi et al., 2009; details: Figure 2, ref Baqi et al., 2009, read-out: Ki (reported potency); cited from earlier work
human CD39 [4] = target: T1, human CD39; set-up: Human umbilical cord membrane preparations (250 ng) natively expressing high amounts of CD39; from tissue; host or cells: human umbilical cord membranes; method as in Lee et al., 2018; details: fluorescent substrate of CD39; ref Lee et al., 2018; cited from earlier work
human CD39 [5] = target: T1, human CD39; set-up: Human umbilical cord membrane preparations (250 ng) natively expressing high amounts of CD39; from tissue; host or cells: human umbilical cord membranes; details: Figure 2, ref Crack et al., 1995, Müller et al., 2006, Lévesque et al., 2007, Baqi et al., 2009, Lecka et al., 2013, Lee et al., 2015, Kanwal et al., 2019, read-out: Ki (reported potency); cited from earlier work

SMILES: Nc1ncnc2c1ncn2[C@@H]1O[C@H](COP(=O)(O)OP(=O)(O)OP(=O)(O)O)[C@@H](O)[C@H]1O [ATP]
Km (human CD39 [1]): 17 µM
Km (NTPDase2): 70 µM
Km (NTPDase3): 75 µM
Km (NTPDase8): 46 µM

Ki (human CD39 [2]): 7.48 ± 1.29 µM
Ki (human CD39 [3]): 5.98 µM
SMILES: CCCCSc1nc2c(N(CC)CC)ncnc2n1[C@@H]1O[C@H](COP(=O)(O)OP(=O)(O)C(Br)(Br)P(=O)(O)O)[C@@H](O)[C@H]1O [Compound 37, (Dibromo((((((2R,3S,4R,5R)-5-(8-(butylthio)-6-(diethylamino)-9H-purin-9-yl)-3,4-dihydroxy-tetrahydrofuran-2-yl)methoxy)(hydroxy)phosphoryl)oxy)-(hydroxy)phosphoryl)methyl)phosphonic Acid]

Ki (human CD39 [2]): 10.6 ± 0.4 µM
IC50 (in words) (human CD39 [2]; human CD39): low micromolar range
fold less potent than dibromo-derivative 38 at CD39 (human CD39 [2]; ratio of Ki values, fluorescence CE assay): about 2 fold
Ki (human CD39 [3]): 4.55 µM
SMILES: Nc1ncnc2c1ncn2[C@@H]1O[C@H](COP(=O)(O)OP(=O)(O)C(F)(F)P(=O)(O)O)[C@@H](O)[C@H]1O [Compound 40, (((((((2R,3S,4R,5R)-5-(6-Amino-9H-purin-9-yl)-3,4-dihydroxytetrahydrofuran-2-yl)methoxy)-(hydroxy)-phosphoryl)oxy)(hydroxy)phosphoryl)difluoromethyl)-phosphonic Acid]

SMILES: Nc1ncnc2c1ncn2[C@@H]1O[C@H](COP(=O)(O)CP(=O)(O)OP(=O)(O)O)[C@@H](O)[C@H]1O [Compound 41, α,β-Methylene-ATP, reference compound]
Ki (human CD39 [2]): 0.632 ± 0.024 µM
Ki (human CD39 [3]): 7.2 µM

SMILES: Nc1c(S(=O)(=O)O)cc(Nc2ccc3ccccc3c2)c2c1C(=O)c1ccccc1C2=O [III, 1-Amino-2-sulfo-4-(2-naphthylamino)-anthraquinone]
Ki (rat CD39): 0.33 µM

SMILES: O=C(NCCCCCCNc1ncnc2c1ncn2[C@@H]1O[C@H](COP(=O)(O)OP(=O)(O)OP(=O)(O)O)[C@@H](O)[C@H]1O)c1ccc2c(c1)C(=O)OC21c2ccc(O)cc2Oc2cc(O)ccc21 [PSB-017621A, N^6-[6-(Fluoresceinyl-5′-carboxamido)hexyl]-ATP]
Km (human CD39 [4]): 19.6 µM

SMILES: Oc1c(Cl)cc(Cl)cc1/C=N/CCc1c[nH]c2ccccc12 [Tryptamine derivative (V)]
Ki (human CD39 [5]): 0.021 µM
